Reference: PMC6010526, “In Silico Approaches Applied to the Study of Peptide Analogs of Ile-Pro-Ile in Relation to Their Dipeptidyl Peptidase IV Inhibitory Properties” (Frontiers in Endocrinology, 2018)
Read-outs that look alike come from different tables or passages of the source. Residues, ends and D or L forms follow the SMILES beside them.

Tests used:
[1] = cited from earlier work
porcine DPP-IV [2] = target: T1, porcine DPP-IV (Sus scrofa, UniProt P22411); experiment: DPP-IV inhibition assay with Gly-Pro-pNA substrate; type: biochemical; set-up: purchased Sigma Aldrich (Dublin, Ireland); conditions: for IC50: porcine DPP-IV, Gly-Pro-pNA 0.200 mM, 37°C, n = 3, read-out: Experimental DPP-IV IC50
T1 sequence (P22411 whole entry): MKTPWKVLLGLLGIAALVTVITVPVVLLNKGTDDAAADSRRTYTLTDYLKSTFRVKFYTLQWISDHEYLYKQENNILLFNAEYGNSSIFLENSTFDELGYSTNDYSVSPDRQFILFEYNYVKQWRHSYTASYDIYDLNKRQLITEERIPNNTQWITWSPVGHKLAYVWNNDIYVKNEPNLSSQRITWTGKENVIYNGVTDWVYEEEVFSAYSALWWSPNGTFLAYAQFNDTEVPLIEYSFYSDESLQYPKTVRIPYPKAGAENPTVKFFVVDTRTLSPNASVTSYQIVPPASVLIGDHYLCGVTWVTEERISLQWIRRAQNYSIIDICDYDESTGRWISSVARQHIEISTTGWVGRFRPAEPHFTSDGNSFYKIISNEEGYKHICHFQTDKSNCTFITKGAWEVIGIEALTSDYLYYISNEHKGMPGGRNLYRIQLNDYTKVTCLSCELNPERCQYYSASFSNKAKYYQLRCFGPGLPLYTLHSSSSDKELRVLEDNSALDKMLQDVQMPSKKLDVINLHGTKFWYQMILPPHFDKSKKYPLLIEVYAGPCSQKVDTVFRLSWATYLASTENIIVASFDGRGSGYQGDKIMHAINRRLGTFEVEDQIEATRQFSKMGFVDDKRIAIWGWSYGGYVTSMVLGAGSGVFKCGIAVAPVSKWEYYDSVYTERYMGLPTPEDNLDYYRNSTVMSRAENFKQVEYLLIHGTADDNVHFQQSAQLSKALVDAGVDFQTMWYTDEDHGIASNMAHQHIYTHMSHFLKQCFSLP
Experimental: Peptides were dispersed in HPLC grade water at 50 and 500 µM (final concentration). The DPP-IV inhibition assay was carried out in triplicate as outlined by Nongonierma and FitzGerald ([18]). Briefly, samples (25 μL) were mixed with Gly-Pro-pNA (final concentration 0.200 mM) and DPP-IV (final concentration 0.0025 U mL^−1) in a 96-well microplate (Sarstedt, Dublin, Ireland). The microplate was incubated at 37°C for 60 min in a microplate reader (Biotek Synergy HT, Winooski, VT, USA) and absorbance was monitored at 405 nm.
Dose–response curves were determined for peptides displaying a percentage of inhibition > 50% at 500 µM. Peptides were diluted in HPLC water at concentrations ranging from 0.37 to 500 µM (final concentration). The DPP-IV IC50 values were determined by plotting the percentage inhibition as a function of the test compound concentration. Each analysis was carried out in triplicate (n = 3).

porcine DPP-IV [3] = target: T1, porcine DPP-IV; experiment: Stability of peptides to hydrolysis by DPP-IV (LC-MS/MS); conditions: for Hydrolysis by DPP-IV (stability), in words: 30 min incubation with DPP-IV; for Peptide hydrolyzed by DPP-IV: peptide at 1/4 of IC50, 30 min at 37°C, Tris-HCl buffer pH 8.0
Experimental: Stability of the peptides to hydrolysis by DPP-IV was evaluated by liquid chromatography tandem mass spectrometry (LC-MS/MS) using the samples generated during the Lineweaver and Burk analysis containing DPP-IV inhibitory peptides at their IC50 values divided by 4 as previously described ([24]). Following the 30 min reaction, DPP-IV was heat inactivated by immersing samples in a water bath set at 90°C for 20 min. Test samples were subsequently diluted 40 times in mobile phase A (0.1% FA in MS water). Intact peptides were analyzed at the same concentration as the test samples. The peptide composition of the samples was determined as described previously ([25]). Briefly, an ultra-high performance liquid chromatography (UHPLC) UltiMate 3000 (Dionex, Camberley, Surrey, UK) fitted with a security guard UHPLC C18 PEPTIDE (2.1 mm, Phenomenex, Cheshire, UK) and an Aeris Peptide XB-C18 column (150 mm × 2.1 mm, 1.7 µm, Phenomenex) was used for peptide separation at 25°C. A sample volume of 2 µL was injected with a solvent delay of 4 min. The UHPLC was coupled to a quadrupole time-of-flight mass spectrometer (Q-TOF, Impact HD™, Bruker Daltonics GmbH, Bremen, Germany) using a 50–600 m/z acquisition range. The MS was fitted with an electrospray ionization source used in positive ion mode. Data acquisition was performed with Hystar software (Bruker Daltonics). Data analysis was performed with Compass Data Analysis 4.2 (Bruker Daltonics).

DPP-IV [4] = conditions: cited from earlier work
DPP-IV [5] = conditions: competitive inhibitory peptides used in QSAR model, cited from earlier work
DPP-IV [6] = tested on: DPP-IV; set-up: method as in PMID 1671823; conditions: after 36 min incubation; ref [47]; cited from earlier work
[7] = target: human dipeptidyl peptidase IV; set-up: method as in PMID 24512990; conditions: most potent peptide of Trp-Arg-Xaa library; ref [14]; read-out: DPP-IV IC50; cited from earlier work

IC50 (porcine DPP-IV [2]) | Hydrolysis by DPP-IV (stability), in words (porcine DPP-IV [3]) | Peptide hydrolyzed by DPP-IV (porcine DPP-IV [3]) | inhibition at 500 µM (porcine DPP-IV [2]; peptide at 500 µM) | Compound | other results
– | – | – | – | Val-Pro-Pro | Identification in human sera ([1]; in vivo): identified in human sera
54.9 ± 2.9 µM | partly hydrolyzed by DPP-IV | YES | – | N[C@@H](Cc1ccccc1)C(=O)N1CCC[C@H]1C(=O)N[C@@H](Cc1c[nH]c2ccccc12)C(=O)O [FPW, Phe-Pro-Trp] (H-Phe-Pro-Trp-OH; N-terminus and C-terminus assumed) | –
– | – | – | < 25% | N=C(N)NCCC[C@H](NC(=O)[C@H](CCCCN)NC(=O)[C@@H](N)CCCNC(=N)N)C(=O)O [RKR, Arg-Lys-Arg] (H-Arg-Lys-Arg-OH; N-terminus and C-terminus assumed) | –
44.3 ± 3.2 µM | not hydrolyzed by DPP-IV | NO | > 65% | C[C@H](N)C(=O)N1CCC[C@H]1C(=O)N[C@@H](C)C(=O)O [APA, Ala-Pro-Ala] (H-Ala-Pro-Ala-OH; N-terminus and C-terminus assumed) | –
– | – | – | – | Val-Pro-Leu [VPL] | times more potent than other food protein-derived peptides (DPP-IV [4]; DPP-IV inhibition, ref [5]): > 2 times; Mode of inhibition (DPP-IV [4]; Table S1, ref (2,3) of supplement): competitive; IC50 (DPP-IV [4]; ref [8]): 15.8 µM
175 ± 5.5 µM | partly hydrolyzed by DPP-IV | YES | – | CC[C@H](C)[C@H](N)C(=O)N1CCC[C@H]1C(=O)N[C@@H](Cc1c[nH]c2ccccc12)C(=O)O [IPW, Ile-Pro-Trp] (H-Ile-Pro-Trp-OH; N-terminus and C-terminus assumed) | –
– | – | – | – | Glu-Lys [EK] | IC50 (DPP-IV [5]; ref [18]): 3220 µM
74.5 ± 7 µM | not hydrolyzed by DPP-IV | NO | > 65% | C[C@H](NC(=O)[C@@H]1CCCN1C(=O)[C@@H](N)CCCCN)C(=O)O [KPA, Lys-Pro-Ala] (H-Lys-Pro-Ala-OH; N-terminus and C-terminus assumed) | –
– | – | – | < 25% | CC[C@H](C)[C@H](N)C(=O)N[C@@H](CCCNC(=N)N)C(=O)N[C@@H](CCCCN)C(=O)O [IRK, Ile-Arg-Lys] (H-Ile-Arg-Lys-OH; N-terminus and C-terminus assumed) | –
– | – | – | – | LPLPL | IC50 (DPP-IV [5]; ref [21]): 325 µM
120 ± 13.1 µM | partly hydrolyzed by DPP-IV | YES | – | N[C@@H](Cc1c[nH]c2ccccc12)C(=O)N1CCC[C@H]1C(=O)N[C@@H](Cc1c[nH]c2ccccc12)C(=O)O [WPW, Trp-Pro-Trp] (H-Trp-Pro-Trp-OH; N-terminus and C-terminus assumed) | –
– | – | – | > 65% | CC[C@H](C)[C@H](N)C(=O)N1CCC[C@H]1C(=O)N[C@H](C(=O)O)[C@@H](C)CC [IPI, Ile-Pro-Ile] | initial amount cleaved by DPP-IV (DPP-IV [6]): 37%
47.3 ± 12.3 µM | partly hydrolyzed by DPP-IV | YES | – | CC[C@H](C)[C@H](N)C(=O)N1CCC[C@H]1C(=O)N[C@@H](Cc1ccccc1)C(=O)O [IPF, Ile-Pro-Phe] (H-Ile-Pro-Phe-OH; N-terminus and C-terminus assumed) | –
– | – | – | – | Trp-Arg-Glu | IC50 [7]: 350 µM
– | – | – | – | LPVPQ | IC50 (DPP-IV [5]; ref [17]): 43.7 µM
– | – | – | – | Ile-Pro-Pro | Identification in human sera ([1]; following ingestion of a milk beverage enriched in lactotripeptides, ref [39]): identified in human sera
– | – | – | – | VPGEIVE | IC50 (DPP-IV [5]; ref [17]): 224 µM
– | – | – | – | IPIQY | IC50 (DPP-IV [5]; ref [21]): 35.2 µM
– | – | – | 9.6 ± 1.9% | CC[C@H](C)[C@H](N)C(=O)N[C@@H](C)C(=O)N[C@H](C(=O)O)[C@@H](C)CC [IAI, Ile-Ala-Ile] (H-Ile-Ala-Ile-OH; N-terminus and C-terminus assumed) | % DPP-IV inhibition (porcine DPP-IV [2]; peptide at 500 µM, 500 µM): < 10%
247 ± 32.7 µM | partly hydrolyzed by DPP-IV | YES | 62.9 ± 10.1% | N[C@@H](Cc1ccccc1)C(=O)N1CCC[C@H]1C(=O)N[C@@H](Cc1ccccc1)C(=O)O [FPF, Phe-Pro-Phe] (H-Phe-Pro-Phe-OH; N-terminus and C-terminus assumed) | –
– | – | – | – | LLQLEAIR | IC50 (DPP-IV [5]; ref [24]): 178 µM
65.8 ± 5.5 µM | not hydrolyzed by DPP-IV | NO | > 65% | C[C@H](N)C(=O)N1CCC[C@H]1C(=O)N[C@@H](Cc1ccccc1)C(=O)O [APF, Ala-Pro-Phe] (H-Ala-Pro-Phe-OH; N-terminus and C-terminus assumed) | –
120 ± 3.5 µM | not hydrolyzed by DPP-IV | NO | > 65% | C[C@H](N)C(=O)N1CCC[C@H]1C(=O)N[C@@H](CCCNC(=N)N)C(=O)O [APR, Ala-Pro-Arg] (H-Ala-Pro-Arg-OH; N-terminus and C-terminus assumed) | –
28.3 ± 3.4 µM | not hydrolyzed by DPP-IV | NO | > 65% | CC[C@H](C)[C@H](N)C(=O)N1CCC[C@H]1C(=O)N[C@@H](C)C(=O)O [IPA, Ile-Pro-Ala] (H-Ile-Pro-Ala-OH; N-terminus and C-terminus assumed) | –
– | – | – | – | MPVQA | IC50 (DPP-IV [5]; ref [24]): 93.3 µM
– | – | – | < 25% | CC[C@H](C)[C@H](N)C(=O)N[C@@H](CCCNC(=N)N)C(=O)N[C@@H](Cc1ccccc1)C(=O)O [IRF, Ile-Arg-Phe] (H-Ile-Arg-Phe-OH; N-terminus and C-terminus assumed) | –
160 ± 12.8 µM | partly hydrolyzed by DPP-IV | YES | – | N[C@@H](Cc1c[nH]c2ccccc12)C(=O)N1CCC[C@H]1C(=O)N[C@@H](Cc1ccccc1)C(=O)O [WPF, Trp-Pro-Phe] (H-Trp-Pro-Phe-OH; N-terminus and C-terminus assumed) | –
– | – | – | – | LPQNIPPLT | IC50 (DPP-IV [5]; ref [17]): 205 µM
– | – | – | – | LPYPY | IC50 (DPP-IV [5]; ref [21]): 108 µM
– | – | – | – | LPVP | IC50 (DPP-IV [5]; ref [24]): 87 µM
